{"source": "patent US20250025500A1", "about": "“PHOSPHATASE INHIBITORS AS NK CELLS MODULATORS FOR THE TREATMENT OF CANCER” (Kanyr Pharma Inc., priority 2021, published 2025)", "key": {"NK-92 cells [1]": {"tested_on": "NK-92 cells", "assay": "Degranulation assay of NK-92 (CD107a, perforin, granzyme B)", "type": "cell-based, Human", "experimental": "(§1) NK-92 cells pre-treated with L598 (30 μM) or vehicle control were stimulated with K-562 tumor target cells [effector: target (E:T) at 1:1] or PMA/lonomycin (1 μg/mL each) or no-stimulation control with K-562 complete media, respectively. Anti-CD107a or LAMP-1 antibody (1:100, PE/Cy7 conjugated, clone H4A3, from BioLegend®) was added to cells at the start of degranulation assay. Golgi stop (containing Monensin, 1 μM) and Golgi plug (containing Brefeldin A, 4 μg/mL) were added to cells one hour after degranulation assay started and were kept until the end of the 6-hour-degranulation assay. Intracellular staining of GrB (1:40, PE conjugated, clone QA18A28, from BioLegend®) and PRF (1:40, FITC conjugated, clone B-D48, from BioLegend®) were performed with the Fixation/Permeabilization Solution Kit (BD® Biosciences) according to the manufacture's protocol. Cells were stained with fixable viability dye (1:2000) for 20 mins on ice and in dark, and blocked with FcBlock (1:20, diluted in 1× Perm/Wash buffer, Human truStain FcX from BioLegend®) for 5 mins at room temperature and in dark before intracellular staining. Cell gating and percentage of population quantification was based on no-stimulation control. For kinetics of degranulation assay, measurements were taken over three hours at 15 mins, 30 mins, 60 mins, 120 mins and 180 mins, with L598 (30 μM, three days) treated group and vehicle control group under the condition of tumor target cell K-562 stimulation (E: T at 1:1) or no stimulation. Intracellular cytolytic granule contents GrA, GrB and PRF were measured as mentioned previously."}, "[2]": {"tested_on": "PTPN1 and PTPN2 catalytic domain", "conditions": "Montalibet J, et al., J Biol Chem 2006; cited from earlier work"}, "[3]": {"tested_on": "NK-92 cells against Reh cells", "assay": "NK-92 cytolytic assay against NK resistant Reh target cells", "type": "cell-based, Human", "conditions": "30 μM three days, IL-2 100 IU/mL, 3 h assay", "experimental": "Human NK cell line NK-92 was purchased from American Type Culture Collection (ATCC) and cultured in α-MEM Essential Medium (no ribonucleoside and deoxyribonucleoside) supplemented with 0.2 mM Myo-inositol, 0.02 mM Folic Acid, 0.1 mM β-mercaptoethanol, 1% of Non-essential Amino Acids, 1×L-Glutamax, 1% of Penicillin/Streptomycin, 12.5% of heat-inactivated Horse, and 12.5% of heat-inactivated Characterized Fetal Bovine Serum or FBS. The media was supplemented freshly with 200 IU/mL of IL-2 upon cell thawing for one passage and 100 IU/mL of IL-2 for cell expansion. Human tumor cell lines K-562 and Reh were purchased from ATCC and were cultured in RPM11640 Medium supplemented with 1% of Penicillin/Streptomycin and 10% of heat inactivated FBS. HEK293T/17 cells and HCT116 cells were cultured in Dulbecco's Modified Eagle's Medium (DMEM) High Glucose Medium supplemented with 1% of Penicillin/Streptomycin and 10% of FBS. All cell lines were maintained in 5% CO2, 37° C. incubator, except that NK-92 were maintained in 6.5% CO2 incubator at 37° C. […]\nNK-92 anti-tumor cytolysis function was assessed by flow cytometry-based analysis. […] Flow cytometry sample acquisition was performed with BDO LSRFortessa™ with a UV laser at Flow Cytometry Core Facility, McGill University, and data was analyzed with FlowJo™ 10.7.1 and summarized with Prism™ 9 (GraphPad™). […]"}, "NK-92 cells [4]": {"tested_on": "NK-92 cells", "assay": "IFN-γ ELISA of NK-92 supernatants", "type": "cell-based, Human", "conditions": "30 μM three days, with or without K-562 (E:T 6:1), vs control", "experimental": "Concentration of secreted IFN-γ in supernatants of NK-92 co-cultured with K-562 cells (E:T at 6:1) or no-stimulation control (K-562 cell media) for four hours was analyzed with Human IFN-γ ELISA Kit (R&D, DIF50) according to the manufacture's protocol. Results were normalized against IFN-γ secreted by K-562 alone treated with NK-92 cell media (no cytokine) for four hours."}, "[5]": {"tested_on": "SMAD2, SOCS1, SOCS3 in NK-92 cells", "assay": "Western blot of phospho-SMAD2, SOCS1 and SOCS3 in NK-92", "type": "cell-based, Human", "conditions": "with inhibitor treatment", "experimental": "Total cell lysate was prepared with modified RIPA buffer (1M Tris-HCl (pH 7.5), 5M NaCl, 0.25% sodium deoxycholate, 10% NP-40 and 10 mM sodium fluoride) supplemented with ethylenediaminetetraacetic acid (EDTA)-free protease inhibitor (Roche™) and 2 mM sodium orthovanadate (Sigma-Aldrich™). Protein levels were quantified by bicinchoninic acid (BCA) assay. Protein lysate was separated by 10% SDS-PAGE and Western analysis was performed using primary antibodies listed in the tables below followed with horseradish peroxidase (HRP, 1:10,000, Jackson ImmunoResearch™) conjugated secondary antibodies."}, "NK-92 cells [6]": {"tested_on": "NK-92 cells", "assay": "Multi-response analysis: cytokine production with degranulation in NK-92", "type": "cell-based, Human", "conditions": "30 μM three days, tumor cell or PMA and ionomycin stimulation", "experimental": "as §1, with “For kinetics of degranulation assay, measurements were taken over three hours at 15 mins, 30 mins, 60 mins, 120 mins and 180 mins, with L598 (30 μM, three days) treated group and vehicle control group under the condition of tumor target cell K-562 stimulation (E: T at 1:1) or no stimulation.” left out"}, "NK-92 cells [7]": {"tested_on": "NK-92 cells", "assay": "NK-92 viability and proliferation under inhibitor treatment", "type": "cell-based, Human", "conditions": "various IL-2 concentration, vs vehicle control"}, "[8]": {"conditions": "PMA/ionomycin 1 μg/mL each, six hours, vs control"}, "[9]": {"conditions": "three-hours cytolytic assay, K-562 stimulation"}}}
{"substance": "7-bromo-6-phosphono(difluoro-methyl)-3-napthalenonitrile [L598]", "values": [{"measurement": "percentage of degranulating NK-92 cells (surface CD107a and intracellular lytic granules)", "setting": "NK-92 cells [1]; 30 μM pre-treatment, K-562 stimulation six hours, vs control", "result": "smaller percentage"}, {"measurement": "dead tumor target K-562 cells in degranulation assay", "setting": "NK-92 cells [1]; K-562 stimulation E:T 1:1, vs control cells", "result": "more tumor target K-562 cells were found dead"}, {"measurement": "degranulated NK-92 cells (CD107a+, Perforin− or Granzyme B−) under PMA and ionomycin", "setting": "NK-92 cells [1]; [8]", "result": "less"}, {"measurement": "degranulating NK-92 cells under PMA and ionomycin", "setting": "NK-92 cells [1]; [8]", "result": "more"}, {"measurement": "percentage of CD107a−, Perforin+ or CD107a−, Granzyme B+ population", "setting": "NK-92 cells [1]; after six-hours K-562 stimulation, vs control", "result": "larger percentage"}, {"measurement": "time from which granzyme B is degranulated more rapidly", "setting": "NK-92 cells [1]; [9]", "result": 60, "unit": "min"}, {"measurement": "time from which perforin is degranulated more rapidly", "setting": "NK-92 cells [1]; [9]", "result": 30, "unit": "min"}, {"measurement": "binding specificity for PTPN1 and PTPN2 over other protein tyrosine phosphatases", "setting": "[2]", "result": "binds specifically to their catalytic domain but no other protein tyrosine phosphatases"}, {"measurement": "NK-92 cytolysis towards NK resistant target cells Reh", "setting": "[3]", "result": "did not improve"}, {"measurement": "IFN-γ protein secretion", "setting": "NK-92 cells [4]", "result": "significantly more"}, {"measurement": "TGF-β1 activated phosphorylation of SMAD2", "setting": "[5]", "result": "did not change significantly"}, {"measurement": "expression of SOCS1 and SOCS3", "setting": "[5]", "result": "did not change"}, {"measurement": "percentages of CD107a+, IFN-γ+ and CD107a+, TNF-α+ cells", "setting": "NK-92 cells [6]", "result": "larger percentages"}, {"measurement": "NK-92 proliferation", "setting": "NK-92 cells [7]", "result": "proliferate slightly faster"}]}
